Holding throughout (assay type): in vivo
Assay [1] relates to Alopecurus myosuroides (ALOMY). Put plainly: Post-emergence glasshouse herbicide test. The conditions noted are these: POST Application, 1000 g/h, after 13 days. In outline:
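Alopecurus myosuroides seeds were sown in pots of standard soil and grown for 8 days in a glasshouse at 24/16° C. day/night, 14 hours light and 65% humidity. The plants were then sprayed post-emergence with an aqueous solution made from the active ingredient in acetone/water (50:50) containing 0.5% Tween 20. Percentage plant damage was scored 13 days later.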

In assay [2] the test system is Amaranthus retoflexus (AMARE). The experiment in a line: Post-emergence glasshouse herbicide test. The conditions noted are these: POST Application, 1000 g/h, after 13 days.
In assay [3] the test system is Echinochloa crus-galli (ECHCG). Put plainly: Post-emergence glasshouse herbicide test. The conditions noted are these: POST Application, 1000 g/h, after 13 days.
Assay [4] has as its system Ipomoea hederacea (IPOHE). The experiment in a line: Post-emergence glasshouse herbicide test. The settings on record: POST Application, 1000 g/h, after 13 days.
Assay [5] has as its system Solanum nigrum (SOLNI). The experiment in a line: Post-emergence glasshouse herbicide test. The settings on record: POST Application, 1000 g/h, after 13 days. An outline of the steps:
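Solanum nigrum seeds were sown in pots of standard soil and grown for 8 days in a glasshouse at 24/16° C. day/night, 14 hours light and 65% humidity. Plants were then sprayed post-emergence with the active ingredient formulated in acetone/water (50:50) containing 0.5% Tween 20. They were grown on under the same conditions with twice-daily watering, and percentage plant damage was scored after 13 days.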

Assay [6] relates to Setaria faberi (SETFA). The experiment in a line: Post-emergence glasshouse herbicide test. The settings on record: POST Application, 1000 g/h, after 13 days. In outline: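 Setaria faberi seeds were sown in standard soil in pots and grown for 8 days in a glasshouse at 24/16° C. day/night, 14 hours light and 65% humidity. Plants were then sprayed post-emergence with the active ingredient in acetone/water (50:50) containing 0.5% Tween 20, regrown under the same conditions with twice-daily watering, and scored for percentage damage after 13 days.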

The subject of assay [7] is Alopecurus myosuroides (ALOMY). Put plainly: Pre-emergence glasshouse herbicide test. The settings on record: PRE Application, 1000 g/h, after 13 days. An outline of the steps:
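Alopecurus myosuroides seeds were sown in standard soil in pots and kept one day in a glasshouse at 24/16° C. day/night, 14 hours light and 65% humidity. The soil was then sprayed pre-emergence with the active ingredient in acetone/water (50:50) containing 0.5% Tween 20. Plants grew on, watered twice daily, and percentage damage was scored 13 days later.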

Assay [8] has as its system Amaranthus retoflexus (AMARE). The experiment in a line: Pre-emergence glasshouse herbicide test. The conditions noted are these: PRE Application, 1000 g/h, after 13 days.
For assay [9], the system named is Echinochloa crus-galli (ECHCG). The experiment in a line: Pre-emergence glasshouse herbicide test. The conditions noted are these: PRE Application, 1000 g/h, after 13 days.
Assay [10] concerns Ipomoea hederacea (IPOHE). The experiment in a line: Pre-emergence glasshouse herbicide test. The conditions noted are these: PRE Application, 1000 g/h, after 13 days.
Assay [11] has as its system Setaria faberi (SETFA). Put plainly: Pre-emergence glasshouse herbicide test. The settings on record: PRE Application, 1000 g/h, after 13 days.
Assay [12] has as its system Solanum nigrum (SOLNI). Put plainly: Pre-emergence glasshouse herbicide test. The conditions noted are these: PRE Application, 1000 g/h, after 13 days.

`Cn1nnnc1NC(=O)c1nc2ccccc2n(-c2cccc(Br)c2)c1=O` [Compound 5.024]: the “percentage damage caused to the plant, ALOMY” value in assay [1] and in assay [7] was 5 (5=80-100%) in each case. Further, the “percentage damage caused to the plant, AMARE” value in [2] and in assay [8] was 5 (5=80-100%) each time. The “percentage damage caused to the plant, ECHCG” value in assay [3] and in assay [9] was 5 (5=80-100%) each time. The “percentage damage caused to the plant, IPOHE” value in assay [4] is on record as 4 (4=60-79%); in assay [10] it was 5 (5=80-100%). Further, the “percentage damage caused to the plant, SOLNI” value in the assay on Solanum nigrum (SOLNI) [5] and in the assay with Solanum nigrum (SOLNI) [12] was 5 (5=80-100%) in each case. Moreover, the “percentage damage caused to the plant, SETFA” value with Setaria faberi (SETFA) [6] and in the assay on Setaria faberi (SETFA) [11] was 5 (5=80-100%) each time.
For `Cn1nnnc1NC(=O)c1nc2ccccc2n(-c2cccc([N+](=O)[O-])c2)c1=O` [Compound 5.025], the “percentage damage caused to the plant, ALOMY” value in assay [1] is given as 5 (5=80-100%); in assay [7] it was 2 (2=20-39%). Further, the “percentage damage caused to the plant, AMARE” value in assay [2] and in [8] was 5 (5=80-100%) in each case. The “percentage damage caused to the plant, ECHCG” value is recorded as 5 (5=80-100%) in assay [3] and 3 (3=40-59%) in [9]. Moreover, the “percentage damage caused to the plant, IPOHE” value in [4] and in [10] was 4 (4=60-79%) throughout. Besides, the “percentage damage caused to the plant, SOLNI” value in the assay on Solanum nigrum (SOLNI) [5] and with Solanum nigrum (SOLNI) [12] was 5 (5=80-100%) in each case. Also, the results for the “percentage damage caused to the plant, SETFA” value in the assay with Setaria faberi (SETFA) [6] and in the assay on Setaria faberi (SETFA) [11] were 5 (5=80-100%) and 2 (2=20-39%), respectively.
As for `Cn1nnnc1NC(=O)c1nc2ccccc2n(-c2cccc(C(F)(F)F)c2)c1=O` [Compound 5.026], the “percentage damage caused to the plant, ALOMY” value in assay [1] and in assay [7] was 5 (5=80-100%) in each case. The “percentage damage caused to the plant, AMARE” value in [2] and in assay [8] was 5 (5=80-100%) each time. Moreover, the “percentage damage caused to the plant, ECHCG” value in [3] and in assay [9] was 5 (5=80-100%) each time. Also, the “percentage damage caused to the plant, IPOHE” value in assay [4] and in assay [10] was 5 (5=80-100%) throughout. Besides, the “percentage damage caused to the plant, SOLNI” value with Solanum nigrum (SOLNI) [5] and in the assay on Solanum nigrum (SOLNI) [12] was 5 (5=80-100%) in each case. For the same molecule, the “percentage damage caused to the plant, SETFA” value with Setaria faberi (SETFA) [6] and in the assay with Setaria faberi (SETFA) [11] was 5 (5=80-100%) each time.
`C=Cc1cccc(-n2c(=O)c(C(=O)Nc3nnnn3C)nc3ccccc32)c1` [Compound 5.027]: the “percentage damage caused to the plant, ALOMY” value in assay [1] and in assay [7] was 5 (5=80-100%) each time. In addition, the “percentage damage caused to the plant, AMARE” value in assay [2] and in assay [8] was 5 (5=80-100%) each time. The “percentage damage caused to the plant, ECHCG” value in assay [3] and in [9] was 5 (5=80-100%) in each case. Besides, the “percentage damage caused to the plant, IPOHE” value in [4] and in assay [10] was 5 (5=80-100%) throughout. For the same molecule, the “percentage damage caused to the plant, SOLNI” value with Solanum nigrum (SOLNI) [5] and in the assay on Solanum nigrum (SOLNI) [12] was 5 (5=80-100%) throughout. Also, the “percentage damage caused to the plant, SETFA” value in the assay on Setaria faberi (SETFA) [6] and with Setaria faberi (SETFA) [11] was 5 (5=80-100%) each time.
Consider `Cn1nnnc1NC(=O)c1nc2ccccc2n(-c2ccc(F)cc2)c1=O` [Compound 5.029], for which the “percentage damage caused to the plant, ALOMY” value in assay [1] is recorded as 4 (4=60-79%); in assay [7] it was 5 (5=80-100%). Also, the “percentage damage caused to the plant, AMARE” value in assay [2] and in assay [8] was 5 (5=80-100%) each time. Further, the “percentage damage caused to the plant, ECHCG” value in assay [3] and in assay [9] was 5 (5=80-100%) in each case. Besides, the “percentage damage caused to the plant, IPOHE” value in assay [4] and in assay [10] was 5 (5=80-100%) in each case. The “percentage damage caused to the plant, SOLNI” value with Solanum nigrum (SOLNI) [5] and in the assay with Solanum nigrum (SOLNI) [12] was 5 (5=80-100%) each time. Also, the “percentage damage caused to the plant, SETFA” value with Setaria faberi (SETFA) [6] and in the assay with Setaria faberi (SETFA) [11] was 5 (5=80-100%) each time.
For the molecule `Cn1nnnc1NC(=O)c1nc2ccccc2n(-c2ccc(OC(F)(F)F)cc2)c1=O` [Compound 5.030], the “percentage damage caused to the plant, ALOMY” value in [1] and in assay [7] was 5 (5=80-100%) in each case. In addition, the “percentage damage caused to the plant, AMARE” value in assay [2] and in assay [8] was 5 (5=80-100%) each time. Besides, the “percentage damage caused to the plant, ECHCG” value in [3] and in assay [9] was 5 (5=80-100%) in each case. Also, the “percentage damage caused to the plant, IPOHE” value in assay [4] and in assay [10] was 5 (5=80-100%) throughout. The “percentage damage caused to the plant, SOLNI” value in the assay on Solanum nigrum (SOLNI) [5] and in the assay on Solanum nigrum (SOLNI) [12] was 5 (5=80-100%) throughout. Also, the “percentage damage caused to the plant, SETFA” value in the assay on Setaria faberi (SETFA) [6] and with Setaria faberi (SETFA) [11] was 5 (5=80-100%) each time.
As for `Cn1nnnc1NC(=O)c1nc2ccccc2n(-c2ccc3ccccc3c2)c1=O` [Compound 5.031], the “percentage damage caused to the plant, ALOMY” value in [1] and in [7] was 1 (1=0-19%) in each case. The “percentage damage caused to the plant, AMARE” value in assay [2] and in assay [8] was 5 (5=80-100%) each time. The “percentage damage caused to the plant, ECHCG” value in assay [3] and in [9] was 1 (1=0-19%) each time. Also, the “percentage damage caused to the plant, IPOHE” value in [4] is listed as 3 (3=40-59%); in assay [10] it was 1 (1=0-19%). The “percentage damage caused to the plant, SOLNI” value with Solanum nigrum (SOLNI) [5] and with Solanum nigrum (SOLNI) [12] was 5 (5=80-100%) throughout. Also, the “percentage damage caused to the plant, SETFA” value with Setaria faberi (SETFA) [6] and with Setaria faberi (SETFA) [11] was 1 (1=0-19%) each time.
For `Cn1nnnc1NC(=O)c1nc2ccccc2n(-c2ccc(Br)cc2)c1=O` [Compound 5.032], the “percentage damage caused to the plant, ALOMY” value is 2 (2=20-39%) in [1] and 4 (4=60-79%) in assay [7]. Moreover, the “percentage damage caused to the plant, AMARE” value in [2] and in assay [8] was 5 (5=80-100%) each time. Further, the “percentage damage caused to the plant, ECHCG” value in assay [3] is on record as 3 (3=40-59%); in [9] it was 4 (4=60-79%). Besides, the “percentage damage caused to the plant, IPOHE” value in assay [4] and in assay [10] was 5 (5=80-100%) each time. Moreover, the “percentage damage caused to the plant, SOLNI” value in the assay with Solanum nigrum (SOLNI) [5] and in the assay with Solanum nigrum (SOLNI) [12] was 5 (5=80-100%) throughout. For the same molecule, the “percentage damage caused to the plant, SETFA” value with Setaria faberi (SETFA) [6] and in the assay with Setaria faberi (SETFA) [11] was 5 (5=80-100%) each time.
For the molecule `COc1ccc(-n2c(=O)c(C(=O)Nc3nnnn3C)nc3ccccc32)cc1F` [Compound 5.033], the results for the “percentage damage caused to the plant, ALOMY” value in assay [1] and in assay [7] were 1 (1=0-19%) and 2 (2=20-39%), respectively. Moreover, the “percentage damage caused to the plant, AMARE” value in assay [2] and in assay [8] was 5 (5=80-100%) throughout. Also, the “percentage damage caused to the plant, ECHCG” value in [3] and in [9] was 5 (5=80-100%) in each case. Besides, the “percentage damage caused to the plant, IPOHE” value in [4] and in assay [10] was 5 (5=80-100%) throughout. The “percentage damage caused to the plant, SOLNI” value in the assay with Solanum nigrum (SOLNI) [5] and in the assay on Solanum nigrum (SOLNI) [12] was 5 (5=80-100%) in each case. The “percentage damage caused to the plant, SETFA” value is 4 (4=60-79%) in the assay on Setaria faberi (SETFA) [6] and 1 (1=0-19%) with Setaria faberi (SETFA) [11].

The record behind these values is patent US9179678B2, “Substituted [1,2,4]triazoles and substituted tetrazoles as herbicides” (SYNGENTA LIMITED, priority 2012, dated 2015).
